Results: EP0938338B1, “CARRIER COMPOSITION FOR INFLUENCING THE TIGHT JUNCTION PERMEABILITY” (Ghyssaert, Joris Rosa Michael, priority 1996, dated 1998)
In brackets after ≈: the same amount, converted by molar mass.

Tests used:
blood glucose level [1] = assay: Rectal perfusion of insulin, blood glucose versus intramuscular injection (set up 1); format: in vivo, guinea pigs and rats; conditions: uncoupler added to perfusion, total concentration 0.5 mg
Experimental: The resorption of Insulin has been monitored by the lowering of the blood glucose level versus an intramuscular injection of an equivalent dose. Glucose was monitored while the determination is simple and inexpensive. However, on several experiments the Insulin level was measured by RIA (Radio Immuno Assays) methods.
Initially the resorption of Insulin was monitored following a perfusion on anaesthetised animals. Anaesthesia was induced by abdominal injection of Ethylurethane (0.9 g/kg).
The circulating solution was principally isotonic Sodium chloride (physiological saline) to which the appropriate Insulin was added in order to obtain the required concentrations.
The used Insulin was […]™ (Novo Nordisk); Human Biosynthetic Insulin.
The perfusion itself was executed on a new developed manner in order to allow a perfusion without an operation. Blood was sampled on the jugular vein.
The device used allows an easy rectal application. It allows an exact positioning and an identical length of perfused colon.
The total circulating fluid was 8 ml. As tubing Isoversinic was used. At intervals 50 µl blood was sampled and used for the glucose determinations. These perfusion experiments were carried out on guinea pigs and rats. […]

blood glucose level [2] = assay: Hollow suppositories with insulin, blood glucose versus intramuscular injection (set up 2); format: in vivo, rabbits; conditions: uncoupler in suppository mass (3 mg, 3 mg, 1.5 mg); insulin in physiological saline
Experimental: Therefore experiments were carried out on rabbits. Male rabbits were immobilised in a metal cage allowing free access to the anal region and the auricular arteries of both ears. In these experiments narcosis was not essential. The sampled blood volume was 0.5 ml.
Small hollow suppositories were made with dimensions ± 2 cm, φ 0.5 cm. The suppositories were filled with […] ™ (Novo Nordisk) 100 I.U./ml in the appropriate dilution with physiological saline. The anal region was secured with adhesive tape.
The following concentrations were used 0.1 I.U./kg body weight, 0.5 I.U./kg body weight, 1.0 I.U./kg body weight.
As the content of the suppository was approximately 0.6 ml, 450 µl (at the highest dose) of the Insulin solution was mixed with 150 µl normal saline.
For these experiments Insulin from bovine pancreas (activity 41.67 µg = 1 I.U.) Fluka was solved in 0.6 ml bidistilled water. The experiment was carried out as outlined above.

large intestine = assay: Colon perfusion: secretory effect of rhein (water, sodium, K+) and its antagonism; format: in vivo
colon descendens = assay: Temperature increase in ligated colon segment (sample versus reference segment); format: in vivo, Guinea pigs
Experimental: While animals are thermally unstable during narcosis special precautions had to be taken to overcome this problem. Guinea pigs (400 g, males) were fasted 12 hours before the experiment. Anaesthesia was induced by intraperitoneal injection of Ethylurethane (0.9 g.kg^-1). The guinea pig was fixed on a thermostated operation table, monitored by a thermosensible detector rectally applied. Heating was carried out by the operation table itself and two lamps located above the animal.
In the evacuated colon descendens two segments were localised. In both segments, later called sample- and reference segment small measuring electrodes were fixed, displaying continuously the absolute temperature until 0.001°C. Two other electrodes linked by a Wheatstone bridge connection were equally located in the two segments. They measure continuously the temperature difference between the two segments.
In both segments a smooth catheter (I.D. 0.3 mm) was fixed, winded several times in the intestinal cavity. In this catheters 100 µl of the reference- and sample solution was injected.
The intestinal cavity was sealed again. This set up enables the injection of solutes at body temperature. The animal was thermally isolated by gauge. After ten minutes, the wheatstone bridge was equilibrated. An injection of 100 µl air evacuates the catheters so injecting the solutions at perfect body temperature.
The electrodes displaying the absolute temperature were calibrated in a thermostatically controlled water bath between 36.0°C and 38.0°C. […] The electrodes measuring the temperature difference were calibrated by two thermostatically controlled water baths with temperature differences between 0.0°C and 2.0°C. The rectal temperature was directly monitored in °C.
• * reference solution: • Krebsolution - TRIS.HCl buffer 0.1 M pH 8.0 (9/1) osmotic pressure equals 0.9 % Sodium Chloride • * Sample solutions : • - Rhein saturated in reference solution.

[3] = tested on: paracellular permeability; assay: 99mTc-EDTA transfer from ligated colon segment to kidneys/urine bladder (mucosal permeability); format: in vivo, Guinea pigs; conditions: for colonic permeability: 99mTc-EDTA in ligated colon segment, one hour, Fig. 2 / Fig. 3; for transfer from lumen to blood of 99mTc-EDTA: after previous administration of the uncoupler
Experimental: Guinea pigs of either sex (250-280 g) were fed for one week with pelleted food containing 0.1% 1,8 dihydroxyanthraquimone. For this purpose the necessary amount of Anthraquinone was solved in ether and sprayed over the pelleted foods. The ether was evaporated. The calculated daily administration of 1,8 dihydroxyantraquinone was 20 mg.
The animals were fasted 6 hours before the experiment in order to empty the proximal colonic segment.
Anaesthesia was induced by peritoneal injection of ethyl urethane (0.9 g.kg^-1) and body temperature was maintained at 37°C by a thermostatically controlled heated table.
A midventral abdominal incision was made and the large intestine exposed.
In this ligated colon segment 0.25 ml ^99mTcEDTA was injected. Immediately the abdominal cavity was closed.
The biodistribution of the labelled complex was visualised by a γ-camera Pho/GAMMA®HP-Nuclear; Chicago fitted with a low energy ([…]) convergating collimator.
After one hour the guinea pigs were killed with chloroform and both kidneys, the ligated colon segment and the liver were isolated. Urine was collected from the urine bladder using a syringe. The activity of the samples was measured by a Gamma-counter (Berthold, Gamma-sample changer BF 5300) positioned on 140 ± 10 keV.
In order to determine the influence of the salicylic acid and dinitrophenol on mucosal permeability, 0.25 ml of salicylic acid was injected in the ligated colon segment of untreated animals. After an exposure time of 30 minutes the labelled ^99mTc-EDTA-complex was injected. The procedure continued as described for 1,8 dihydroxyantraquinone.
The instant kit method of Eckelman and Richards (J. Nucl. Med. 11, 761(1970)) was modified. 5.0 mg of Na2EDTA and 0.5 mg of snCl2.2H20/ml was filtered through a 0.22 µ membrane filter and conserved in 3 ml vacuum serum tubes. The kits were kept at -20°C.
Prior to the experiment 1 ml sterile eluate of a ^99mTc-generator (Sterow™ 99m Byk-Malincrodt) with an activity of 2-10 µ Ci was added to the thawed kit. After mixing the efficiency of the complex formulation was assessed by paper chromatography (Whatman N° 1) using physiological water and methylethylketone as mobile phase. Detection was made with a Berthold Scanner. More than 98% of the present ^99mTc was complexed.
100 mg salicylic acid or dinitrophenol was solved in bidistilled water. Sodium hydroxide N was added until complete dissolution. pH was adjusted on 8.5. Water was added to a volume of 10 ml. Osmolarity was adjusted (275 mOsm/1) by adding 23 and 14 mg sodium chloride respectively.

[4] = tested on: junctions of the colonic mucosa; assay: Blockade of the paracellular route by anti-diarrhoeal drugs (99mTc-EDTA transfer lumen to blood); format: in vivo; conditions: in combination with DHA; Fig. 5
isolated mitochondria = assay: Generation speed of ATP in isolated mitochondria (Luciferin-Luciferase); format: biochemical, Phaseolus aureus; conditions: 20 µl Loperamide HCl (5 mg/80 ml water); increasing concentrations DHA; N=15; Fig. 8
Experimental: Mitochondria were isolated from Phaseolus aureus. Beans were allowed to sprout at 28°C during 5 days in the dark. 40 g sprouts were used.
The plant material was homogenised at 3°C with a solution of 0.3M Mannitol, 1 mM Na2EDTA, 0.1% BSA, 0.05% Cysteine. The pH was adjusted to 7.2
During homogenisation 6 N KOH was added to keep the pH at 7.2.
The suspension was centrifuged at 2°C (2000 x g for 15 minutes). The pellet was removed and the supernatant centrifuged again during 20 minutes (8000 x g). The pellet was carefully resuspended in 1 ml of a solution (reaction medium) with 0.3M Mannitol, 10mM phosphate buffer, 10mM KCl, 5mM MgCl2, 0.1% BSA. The pH was adjusted at 7.2.
Mitochondrial quality was assessed by measuring the formation speed of ATP following a ADP injection. ATP was measured by L-Luciferin-Luciferase light emission in the LKB-Luminometer.
The measurement of ATP was carried out in a medium consisting of a 1/1 mixture of reaction medium and Luciferin-Luciferase buffer. The complex composition is : • 200 µl Luciferin-Luciferase solution • 400 µl TRIS.HCl 0.05 M - EDTA 2 mM pH 7.75 • 400 µl reaction medium as explained above • 20 µl mitochondrial suspension • 10 µl Succinate 10 mM pH 7.7 • 20 µl Loperamide HCl (5 mg/80 ml water) or water depending on the experimental set up 1,8 dihydroxyanthraquinone was used in a concentration of 2 mg/100 ml methanol.

[5] = Saturation concentration in reference solution; conditions: krebs - tris.hcl buffer, pH 8, aqueous buffer
[6] = tested on: monocellular mucosal layer of the guinea-pig colon; assay: ATP content of lyophilised colon mucosa (firefly bioluminescence); format: in vivo, Guinea pigs; conditions: 3.76 mg rhein in ligated colonic segment
Experimental: The ATP content was measured in the monocellular mucosal layer of the guinea-pig colon.
Guinea pigs with a weight (mean ± 400 g) were fasted 12 hours before the experiments. Anaesthesia was induced by intraperitoneal injection of Ethylurethane (0.9 g.kg^-1).
The segment was filled with 4.0 ml of the solution to be tested. The intestinal cavity was immediately sealed again. After the experiment the colon segment was removed and submerged in liquid Nitrogen. The gut specimen was transferred to the precooled lyophylisator (-80°C, sample -20°C) and lyophilised during 36 hours. Microscopically, the mono cellular mucosa layer was scraped off. One segment, proceeding this way normally yield 1.5 - 2.0 mg lyophilised mucosa cells. 1.000 mg mucosa was weighted carefully on a microbalans and homogenised with 100.00 mg lactose. The ATP level was measured on 3.000 mg of this mixture.
ATP was measured following the firefly-bioluminescence system on a LKB Wallac 1250, fitted with a 1250 display. […]
For the blank experiment 200 µl Luciferine-Luciferase solution was mixed with 500 µl TRIS-EDTA buffer solution. The light emission was measured following the addition of standard amounts of ATP.
3.000 mg of the mucosa/lactose mixture was suspended in 800 µl TRIS-EDTA buffer solution. […] Known quantities of ATP were added.

paracellular route = assay: Blockade by TAP of the 1,8-dihydroxyanthraquinone-increased mucosal permeability (99mTc-EDTA); format: in vivo, Guinea pigs; conditions: TAP 80 mM pH 6.0 followed by 99mTc-EDTA; Fig. 4; p < 0.01
Experimental: 2,4,6-Triaminopyrimidine (TAP) was used to block the paracellular way. If the resorption of a non resorbable molecule ^99mTc-EDTA complex was enhanced by the addition of a mitochondrial uncoupler and blocked by TAP, then the route followed by the ^99mTc-EDTA complex was unequivocally identified as the paracellular one.
The same materials and methods were used as described in Example 1. However, instead of ^99mc-EDTA TAP was used followed by ^99mTc-EDTA.
100 mg TAP was solved in bidistilled water. The pH was adjusted to 6.0 with HCl 2 N and completed to 10.0 ml. Final concentration was 80 mM. To obtain a physiological osmolarity 16 mg sodium chloride was added.

[7] = 100 µl saturated solution in colon segment versus reference segment, Fig. 10

With `COc1ccc2c(c1)c(CC(=O)O)c(C)n2C(=O)c1ccc(Cl)cc1` [Indomethacin] the “Insulin absorption, of the effect obtained after an intramuscular injection” value (blood glucose level [1]) was roughly 44% and the “blood glucose fall, of the effect obtained after intramuscular injection of an identical dose” value (from here on “blood glucose fall”) (blood glucose level [2]) was roughly 50%.
For `CN1CC[C@]23c4c5ccc(O)c4O[C@H]2[C@@H](O)C=C[C@H]3[C@H]1C5` [morphine], the “K+ concentration” value (large intestine; in vivo) was “completely antagonised”, the “effect on the secretory effect of rhein” value (large intestine; in vivo) was “counteracted the secretory effect of rhein” and the “effect on the secretory effect of rhein, prior perfusion” value (large intestine; in vivo) was “protects the large intestine from the secretory effect of rhein”.
For trigalloylglucose, the “effect on the secretory effect of rhein” value (large intestine; perfused after rhein or together with rhein, Fig. 6, Fig. 7) was “inhibit completely the secretory effect of rhein”.
With `O=C(O)c1ccccc1O` [salicylic acid] the “temperature rise” value (colon descendens; other tested mitochondrial uncouplers) was “show the same results”, the colonic permeability [3] was “similar, although less pronounced effect” and the “transfer from lumen to blood of 99mTc-EDTA” value [3] was “significantly enhanced”.
For `CN(C)C(=O)C(CCN1CCC(O)(c2ccc(Cl)cc2)CC1)(c1ccccc1)c1ccccc1` [loperamide], the “transfer of 99mTc-EDTA complex from lumen to blood” value [4] was “no longer transferred from lumen to blood”, the “effect on temperature rise following DHA administration” value (colon descendens; guinea pig, in vivo) was “antagonises the temperature rise” and the “protection against uncoupling effect of DHA on generation speed of ATP” value (isolated mitochondria) was “protects mitochondria in vitro against the uncoupling effect of anthraquinones”.
For `O=C(O)c1cc(O)c2c(c1)C(=O)c1cccc(O)c1C2=O` [rhein], the temperature rise (colon descendens; [7]) was 0.36 °C, the “Insulin absorption, of the effect obtained after an intramuscular injection” value (blood glucose level [1]) was roughly 44% and the “blood glucose fall” value (blood glucose level [2]) was roughly 50%. For the same compound, the solubility [5] was 0.952 µg/mL (≈ 3.35 µM), the “initial ATP concentration recovered” value ([6]; after 60 minutes) was 67.1% and the “initial ATP concentration remaining” value ([6]; after 90 minutes) was 35.9%.
For `Nc1cc(N)nc(N)n1` [TAP, 2,4,6-Triaminopyrimidine], the “mucosal permeability following a 1,8-dihydroxyanthraquinone administration” value (paracellular route) was “nearly completely restored”.
For `O=C1c2cccc(O)c2C(=O)c2c(O)cccc21` [1,8-dihydroxyanthraquinone], the temperature rise (colon descendens; [7]) was 0.70 °C, the colonic permeability [3] was “remarkable increase of colonic permeability” and the “transfer from lumen to blood of 99mTc-EDTA” value [3] was “significantly enhanced”. The “radioactivity leaked from the colon and concentrated in the urine bladder” value ([3]; one hour after administration of the radioactive complex, 0.1% in food for one week) was roughly 25% and the “blood glucose fall” value (blood glucose level [2]) was roughly 50%.
